Test results as given in US10869878B2, “Vaginal composition and use thereof” (SINGAPORE ZE&Z INTERNATIONAL PTE. LTD, priority 2014, dated 2020).
Where two headings read alike, the source gives them in different places.

Tests used:
[1] = tested on: BV-associated bacteria; experiment: Acid production by BV-associated bacteria in carbohydrate containing gels, slightly aerobic incubation (Experimental Example 1); assay type: cell-based; details: 1% (w/v) carbohydrate gel
Text: (1) Grouping in experiment: • (1) Isomaltulose group: containing 1% (w/v) isomaltulose, MRS basal medium without carbohydrate, 5% (w/v) calf serum, and 0.5% (w/v) xanthan gum, pH5.4; • (2) Isomaltose group: containing 1% (w/v) isomaltose, MRS basal medium without carbohydrate, 5% (w/v) calf serum, and 0.5% (w/v) xanthan gum, pH5.4; • (3) Sucrose group: containing 1% (w/v) sucrose, MRS basal medium without carbohydrate, 5% (w/v) calf serum, and 0.5% (w/v) xanthan gum, pH5.4; and • (4) Maltose group: containing 1% (w/v) maltose, MRS basal medium without carbohydrate, 5% (w/v) calf serum, and 0.5% (w/v) xanthan gum, pH5.4.
The gel of each group was formulated essentially following the method described in Composition Example 1, then sterilized, added with calf serum, and packed in test tubes in a specification of 5 g/tube, for late use.
(§1) (2) Secretion specimens from BV patients: vaginal secretions from 5 BV patients; and the criteria of inclusion are: • (1) conforming to the Amsel clinical criteria of BV diagnosis, wherein the pH value of the vaginal secretions was >4.6; • (2) after smearing, Gram staining and microscopical examination of vaginal secretions, Nugent score ≥7; and • (3) no other vaginosis and no antimicrobial agent is used within two weeks.
(3) After sampling, the secretion specimens from BV patients meeting the criteria of inclusion were immediately inoculated to the above 4 gels containing a carbohydrate, and slightly aerobically incubated at 37° C. for 46 hrs. The pH values of the gel matrices are detected with a precise pH test paper respectively at 14 hrs, 36 hrs, and 46 hrs.

[2] = tested on: BV-associated bacteria; experiment: Acid production by BV-associated bacteria in semi-solid agars containing a carbohydrate, anaerobic incubation (Experimental Example 2); assay type: cell-based; details: 24 hrs anaerobic, 37° C., 1.5% (w/v) carbohydrate, initial pH 5.4
Text: (1) Grouping in experiment: • (1) Glucose group: containing 1.5% (w/v) glucose, MRS basal medium without carbohydrate, 5% (w/v) calf serum, and 0.45% (w/v) agar, pH5.4; • (2) Fructose group: containing 1.5% (w/v) fructose, MRS basal medium without carbohydrate, 5% (w/v) calf serum, and 0.45% (w/v) agar, pH5.4; • (3) Mannose group: containing 1.5% (w/v) mannose, MRS basal medium without carbohydrate, 5% (w/v) calf serum, and 0.45% (w/v) agar, pH5.4; • (4) Sucrose group: containing 1.5% (w/v) sucrose, MRS basal medium without carbohydrate, 5% (w/v) calf serum, and 0.45% (w/v) agar, pH5.4; • (5) Maltose group: containing 1.5% (w/v) maltose, MRS basal medium without carbohydrate, 5% (w/v) calf serum, and 0.45% (w/v) agar, pH5.4; • (6) Isomaltose group: containing 1.5% (w/v) isomaltose, MRS basal medium without carbohydrate, 5% (w/v) calf serum, and 0.45% (w/v) agar, pH5.4; and • (7) Isomaltulose group: containing 1.5% (w/v) isomaltulose, MRS basal medium without carbohydrate, 5% (w/v) calf serum, and 0.45% (w/v) agar, pH5.4.
The semi-solid agar of each group was formulated essentially following the method described in Composition Example 1, then sterilized, added with calf serum, and packed in test tubes in a specification of 5 g/tube, for late use.
as §1
(3) After sampling, the secretion specimens from BV patients meeting the criteria of inclusion were immediately inoculated to the above 7 aseptic semi-solid agars containing a carbohydrate at the bedside and anaerobically incubated at 37° C. for 24 hrs. The pH values of the agar matrices are detected with a precise pH test paper.

[3] = tested on: Lactobacilli in the secretions from BV patients; experiment: Selective promotion of carbohydrate containing gels for the growth of Lactobacilli, 16s rDNA identification (Experimental Example 4); assay type: cell-based; details: secretions from 20 BV patients; 1% (w/v) carbohydrate gel, 48 hrs slightly aerobic
Experimental: (§2) (3) After sampling, the vaginal secretion specimens from BV patients meeting the criteria of inclusion were immediately inoculated to the above 4 gels containing a carbohydrate, slightly aerobically incubated at 37° C. for 48 hrs, then transferred to a plate containing improved MRS with 1% (w/v) glucose and 5% (w/v) calf serum, slightly aerobically incubated for 20-48 hrs, isolated, purified and multiplied. The strain was identified by 16s rDNA sequencing.

[4] = tested on: Bifidobacteria in the secretions from BV patients; experiment: Selective promotion of carbohydrate containing gels for the growth of Bifidobacteria (Experimental Example 4); assay type: cell-based; details: secretions from 20 BV patients; 1% (w/v) carbohydrate gel, 48 hrs slightly aerobic
Experimental: as §2

[5] = tested on: Gardnerella vaginalis in the secretions from BV patients; experiment: Selective promotion of carbohydrate containing gels for the growth of Gardnerella vaginalis (Experimental Example 4); assay type: cell-based; details: secretions from 20 BV patients; 1% (w/v) carbohydrate gel, 48 hrs slightly aerobic
Experimental: as §2

[6] = tested on: Canidia albicans; experiment: Metabolization of carbohydrates by Canidia albicans, residual carbohydrate by HPLC (Experimental Example 5); assay type: cell-based; details: for residual carbohydrate content by HPLC: 72 hrs aerobic, 37° C., initial 1.5% (w/v) carbohydrate, pH 7.0, detection limit 0.05% (w/v)
Experimental: (1) Grouping in experiment:
(2) Test strain: 2 strains of Canidia albicans, isolated from patients with candidal vaginitis.
The supernatant was separated by centrifugation, and packed in a specification of 5 ml/tube. The carbohydrate content in each tube was detected by HPLC.

[7] = tested on: BV; details: cited from earlier work; for cure rate for BV: Livengood 2007
[8] = tested on: L. jensenii; details: medium with 0.5% (w/v) isomaltulose, pH 5.4
Text: (§3) The following culture media containing different concentrations of preservatives were formulated with a basal medium containing 0.5% (w/v) isomaltulose, MRS medium without carbohydrate, and 5% (w/v) calf serum:
A. 0.1% (w/v) sodium benzoate
B. 0.2% (w/v) sodium benzoate
C. 0.02% (w/v) sodium dehydroacetate
D. 0.25% (w/v) sodium propionate group
E. 0.5% (w/v) sodium propionate group
(§4) F. 0.02% (w/v) sodium dehydroacetate+0.25% (w/v) sodium propionate group
(§5) G. 0.02% (w/v) sodium dehydroacetate+0.5% (w/v) sodium propionate group
(§6) The culture medium of each group was adjusted to pH 5.4, sterilized and packed in a test tube in a specification of 2 ml/tube.
(§7) (2) Inoculation and incubation of test strains: a bacterial suspension containing (1-5)×10^5 cfu/ml Candida glabrada isolate and a bacterial suspension containing (1-5)×10^5 cfu/ml L. jensenii were inoculated to each tube respectively. The Candida glabrada was aerobically incubated at 37° C. for 72 hrs, and the L. jensenii was microaerophilic incubated for 22 hrs.

[9] = tested on: Candida glabrada isolate; details: medium with 0.5% (w/v) isomaltulose, pH 5.4
Text: as §3
A. 0.1% (w/v) sodium benzoate
B. 0.2% (w/v) sodium benzoate
C. 0.02% (w/v) sodium dehydroacetate
D. 0.25% (w/v) sodium propionate group
E. 0.5% (w/v) sodium propionate group
as §4, §5, §6, §7

[10] = 0.02% (w/v) sodium dehydroacetate

OC[C@H]1O[C@H](O[C@H]2[C@H](O)[C@@H](O)C(O)O[C@@H]2CO)[C@H](O)[C@@H](O)[C@@H]1O (mixture of isomers) [Maltose, maltose]
pH of the gel ([1]; Specimen 1, 0 hr (initial)): 5.4 | pH of the gel ([1]; Specimen 1, 14 hrs, slightly aerobic, 37° C., initial pH 5.4): 3.8 | pH of the gel ([1]; Specimen 1, 46 hrs, slightly aerobic, 37° C., initial pH 5.4): ≤3.8 | pH of the gel ([1]; Specimen 2, 0 hr (initial)): 5.4 | pH of the gel ([1]; Specimen 2, 14 hrs, slightly aerobic, 37° C., initial pH 5.4): 4.1-4.4 | pH of the gel ([1]; Specimen 2, 46 hrs, slightly aerobic, 37° C., initial pH 5.4): ≤3.8 | pH of the gel ([1]; Specimen 3, 0 hr (initial)): 5.4 | pH of the gel ([1]; Specimen 3, 14 hrs, slightly aerobic, 37° C., initial pH 5.4): 4.1-4.4 | pH of the gel ([1]; Specimen 3, 36 hrs, slightly aerobic, 37° C., initial pH 5.4): ≤3.8 | pH of the gel ([1]; Specimen 4, 0 hr (initial)): 5.4 | pH of the gel ([1]; Specimen 4, 14 hrs, slightly aerobic, 37° C., initial pH 5.4): 4.6 | pH of the gel ([1]; Specimen 4, 36 hrs, slightly aerobic, 37° C., initial pH 5.4): ≤3.8 | pH of the gel ([1]; Specimen 5, 0 hr (initial)): 5.4 | pH of the gel ([1]; Specimen 5, 14 hrs, slightly aerobic, 37° C., initial pH 5.4): 4.1-4.4 | pH of the gel ([1]; Specimen 5, 36 hrs, slightly aerobic, 37° C., initial pH 5.4): 4.1-4.4 | pH of the semi-solid agar ([2]; Specimen 1): 3.8 | pH of the semi-solid agar ([2]; Specimen 2): 3.8 | pH of the semi-solid agar ([2]; Specimen 3): 3.8 | pH of the semi-solid agar ([2]; Specimen 4): 3.8 | pH of the semi-solid agar ([2]; Specimen 5): 3.8 | samples positive for Lactobacilli, In total [3]: 8 | total number of samples positive for L. amylovorus incubation [3]: 1 | total number of samples positive for L. crispatus incubation [3]: 1 | total number of samples positive for L. gasseri incubation [3]: 2 | total number of samples positive for L. iners incubation [3]: 0 | total number of samples positive for L. jensenii incubation [3]: 3 | total number of samples positive for L. mucosae incubation [3]: 1 | number of samples positive for Bifidobacterium bifidum [4]: 1 (8) | number of samples positive for Bifidobacterium breve [4]: 0 | number of samples positive for Bifidobacterium dentium [4]: 0 | number of samples positive for Bifidobacterium longum [4]: 0 | samples positive for Bifidobacteria, In total [4]: 1 | number of samples positive for Gardnerella vaginalis [5]: 6 (2, 6, 7, 9, 15, 19) | samples positive for Gardnerella vaginalis, In total [5]: 6 | residual carbohydrate content by HPLC ([6]; Canidia albicans 1): Not detected^1 | residual carbohydrate content by HPLC ([6]; Canidia albicans 2): Not detected | residual concentration ([6]; both strains of Canidia albicans, 72 hrs, initial 1.5% (w/v)): below 0.05 % (w/v)

O=C(CO)[C@@H](O)[C@H](O)[C@H](O)CO [Fructose, fructose]
pH of the semi-solid agar ([2]; Specimen 1): 4.6 | pH of the semi-solid agar ([2]; Specimen 2): 4.1 | pH of the semi-solid agar ([2]; Specimen 3): 3.8-4.1 | pH of the semi-solid agar ([2]; Specimen 4): 4.1 | pH of the semi-solid agar ([2]; Specimen 5): 3.8

Cc1ncc([N+](=O)[O-])n1CCO [metronidazole]
cure rate ([7]; BV patients): about 60%

O=C([O-])c1ccccc1.[Na+] [sodium benzoate]
turbidity, Lactobacilli (0 hr) ([8]; 0.1% (w/v) sodium benzoate): 0.6 | turbidity, Lactobacilli (22 hrs) ([8]; 0.1% (w/v) sodium benzoate): 0.9 | turbidity, Lactobacilli (0 hr) ([8]; 0.2% (w/v) sodium benzoate): 0.7 | turbidity, Lactobacilli (22 hrs) ([8]; 0.2% (w/v) sodium benzoate): 0.7 | turbidity, Candida (0 hr) ([9]; 0.1% (w/v) sodium benzoate): 0.6 | turbidity, Candida (72 hrs) ([9]; 0.1% (w/v) sodium benzoate): 7.1 | turbidity, Candida (0 hr) ([9]; 0.2% (w/v) sodium benzoate): 0.6 | turbidity, Candida (72 hrs) ([9]; 0.2% (w/v) sodium benzoate): 2.1

CC(=O)c1c([O-])cc(C)oc1=O.[Na+] [sodium dehydroacetate]
turbidity, Lactobacilli (0 hr) [8, 10]: 0.5 | turbidity, Lactobacilli (22 hrs) [8, 10]: 1.4 | turbidity, Candida (0 hr) [9, 10]: 0.5 | turbidity, Candida (72 hrs) [9, 10]: 3.9

CCC(=O)[O-].[Na+] [sodium propionate]
turbidity, Lactobacilli (0 hr) ([8]; 0.25% (w/v) sodium propionate): 0.6 | turbidity, Lactobacilli (22 hrs) ([8]; 0.25% (w/v) sodium propionate): 5.2 | turbidity, Lactobacilli (0 hr) ([8]; 0.5% (w/v) sodium propionate): 0.4 | turbidity, Lactobacilli (22 hrs) ([8]; 0.5% (w/v) sodium propionate): 1.7 | turbidity, Candida (0 hr) ([9]; 0.25% (w/v) sodium propionate): 0.5 | turbidity, Candida (72 hrs) ([9]; 0.25% (w/v) sodium propionate): >7.5 | turbidity, Candida (0 hr) ([9]; 0.5% (w/v) sodium propionate): 0.4 | turbidity, Candida (72 hrs) ([9]; 0.5% (w/v) sodium propionate): 6.3

CCS(=O)(=O)CCn1c([N+](=O)[O-])cnc1C [tinidazole]
cure rate for BV ([7]; FDA 1998 guideline, both the clinical and microbiological cure standards met): 37% | cure rate for BV ([7]; cure if 3 of the 4 traditional Amsel clinical criteria are normal): 57%
